Reference: patent publication EP0519427A2, “N-substituted-3-iodopropiolamide, production and use thereof” (priority 1991, dated 1992)

Legend:
Assay type in all cases: cell-based
[1] = system: Rhizopus javanicus Takeda IFO 6354; experiment: Fungicide activity for wood fungicide (rating of fungi growth on treated wood); conditions: beech specimens dipped 3 min in fungicide solution, 4 weeks culture; rating 0 (no growth) to 3; mean of 6 specimens
Description: (§1) This test was conducted according to Specification No.2 of Japan Wood Preserving Association, enacted in 1979 and titled "Test methods of fungicide activity for wood fungicide".
(§2) • ① Aspergillus niger van Tieghem IFO 6341 = ATCC 6275 • ② Penicillium funiculosum Thom (formerly : Penicillium luteum Zukal) IFO 6345 = ATCC 9644 • ③ Rhizopus javanicus Takeda (formerly : Rhizopus nigricans Ehrenberg S.N. 32) IFO 6354 • ④ Aureobasidium pullulans (de Bary) Arnaud IFO 6353 = IAM (H. Iizuka, F-24) • ⑤ Gliocladium virens Miller, Gidden & Fosteb IFO 6355 = ATCC 9645 (formerly : Trichoderma viride, T.I.)
(§3) The fungi ① , ② , ③ and ⑤ are classified as fungi imperfecti, and the fungus ④ as blue stain fungus.
(§4) The Culture medium comprised the potato-sap agar culture medium (specified in the Japan Industrial Standard (JIS) Z 2911- 1960) of 50 ml, put in the conical flask of 100 ml, sterilized by steam at 1.4-1.6 kgf/cm² .G (137.2-156.8 KPa) for 30 minutes.
(§5) The fungi to be used were inoculated into the culture medium specified in the previous section and were cultured at 26 ± 2 °C under the relative humidity of 70-80 % for two weeks.
(§6) The potato sap of 50 ml, sterilized, cooled to room temperature and to which dioctyl sodium sulfosuccinate, a wetting agent, was added so as to become 0.005 %, was dropped to the fully breeding fungi layer, and was agitated with a platinum spatula in such a way that the spore was torn off. The resulting liquid filtered by sterilized gauze was the spore suspension.
(§7) 3-5-1 A Petri dish measured 90-100 mm in diameter and 20 mm in height.
(§8) 3-5-2 Agar liquid (which has no nutrients) of 2 % sterilized by steam was dropped onto the Petri dish sterilized by dry heat, and then was solidified.
(§9) 3-5-3 Three mm diameter sterilized glass bars or plastic nets made of polypropylene, etc. were placed to prevent the test specimens from touching with agar directly.
(§10) 3-6-1 The type of trees for wood specimens was beech. The cross section was of grain face, and the dimension was 20 mm wide 3 mm thick and 50 mm long.
(§11) 3-6-2 Wood specimens were supplied with nutrients in such a way that they were dipped into the potato-sap (the one in the section 3-2, but agar was not added) for 3 minutes.
(§12) 3-6-3 Nutrient-supplied wood specimens, after drying at 60 °C, were used for testing immediately. They were temporarily stored at 0 °C, but they were served to tests as soon as possible.
(§13) The test specimens were of two types, treated and untreated speciments. The treated specimens referred to the one treated with fungicide. The untreated specimens were of two types, the one really untreated and the other treated with solvent only.
(§14) 3-7-2-1 Nutrients-supplied wood specimens were dried at 60 ± 2 °C, and then their weights (W₀) were measured. Test specimens of 10-20 pieces were piled up in a one liter beaker in such a way that two specimens constant space apart from each other were alternately put on the other two specimens also constant space apart from each other. On the top of the two specimens, a weight was placed. Through the test specimens thus arranged, the fungicide solution was introduced. The level of the fungicide solution was one centimeter above the top specimens. The test specimens were dipped for three minutes after the fungicide solution introduction.
(§15) After finishing dipping, the test specimens were wiped softly, and then the weights (W₁) were measured immediately. As control experiment, the same procedure as the above was done using solvent without fungicide.
(§16) 3-7-2-2 The amounts of solution pick-up and fungicide pick-up were calculated with the following equations: The amount of solution absorption: RL = W₁ - W₀ [formula] The amount of fungicide absorption: Rc = RL × fungicide concentration [formula] 3-7-2-3 Wood specimens treated were placed without contacting each other, then were air-dried for two days, and then served as the treated test specimens. […]

[2] = system: Gliocladium virens Miller, Gidden & Fosteb IFO 6355; experiment: as above; conditions: beech specimens dipped 3 min in fungicide solution, 4 weeks culture; rating 0 (no growth) to 3; mean of 6 specimens
Description: as §1, §2, §3, §4, §5, §6, §7, §8, §9, §10, §11, §12, §13, §14, §15, §16

[3] = system: Aspergillus niger van Tieghem IFO 6341; experiment: as above; conditions: beech specimens dipped 3 min in fungicide solution, 4 weeks culture; rating 0 (no growth) to 3; mean of 6 specimens
Description: as §1, §2, §3, §4, §5, §6, §7, §8, §9, §10, §11, §12, §13, §14, §15, §16

[4] = system: Aureobasidium pullulans (de Bary) Arnaud IFO 6353; experiment: as above; conditions: beech specimens dipped 3 min in fungicide solution, 4 weeks culture; rating 0 (no growth) to 3; mean of 6 specimens
Description: as §1, §2, §3, §4, §5, §6, §7, §8, §9, §10, §11, §12, §13, §14, §15, §16

[5] = system: Penicillium funiculosum Thom IFO 6345; experiment: as above; conditions: beech specimens dipped 3 min in fungicide solution, 4 weeks culture; rating 0 (no growth) to 3; mean of 6 specimens
Description: as §1, §2, §3, §4, §5, §6, §7, §8, §9, §10, §11, §12, §13, §14, §15, §16

[6] = system: Coriolus versicolor(L. ex Fr.) Quélet, FFPRI 1030; experiment: Preserving activity for wood preservatives (weight loss of treated wood); conditions: beech sapwood specimens, 110 ± 10 g/m² preservative applied (0.5% xylene solution per table note), eight weeks at 26 ± 2 °C; lower = higher preserving activity
Description: (§17) This test was conducted according to Specification No.1 of Japan Wood Preserving Association, enacted in 1979, amended in 1989 and titled "Test methods of preserving activity for wood preservatives used in the coating, spraying and dipping treatment".
(§18) • ① Tyromyces palustris (Ber. et Curt.) Murr., FFPRI 0507 --"Ouzuratake" • ② Coriolus versicolor(L. ex Fr.) Quélet, FFPRI 1030 --"Kawaratake"
(§19) These two fungi are classified as wood rot fungi.
(§20) Culture media comprised culture jars (cylindrical jars of bottom diameter 8-9 cm, opening diameter 6-7 cm and height 15-18 cm), in which quartz sand of 250 g (the size of which corresponds to 20-30 mesh) was put first, and then the solution of 70 ml containing 2.0 % malt extracts and 1.0 % peptone was introduced, over which chips of the beech or other broadleaf tree were spread at about 2 mm thickness, and then sterilized at 120 °C for 30 minutes in the wet heated sterilizer.
(§21) Fungi were cultured at 26 ± 2 °C with shaking using the culture solution of 2.0 % malt extracts and 1.0 % peptone. After sufficient breeding was obtained, the fungi solution of about 3 ml was spread all over the culture medium, and then the fungi were cultured at 26 ± 2 °C with the relative humidity of over 70 %. After 10-15 days when the fungi layer sufficiently covered the culture medium, the fungi were served for the tests.
(§22) Wood specimens were the sapwood of intact cedar and beech, the dimension of which was 5 mm thick, 20 mm wide and 40 mm long. The grain face was of 20 mm width and 40 mm length. The side faces were treated with cold-setting epoxy resin.
(§23) The antimicrobial operation was performed with specifying types of fungi for corresponding type of trees. The combinations were as follows: Cedar----Tyromyces palustris ("Ouzuratake") Beech----Coriolus versicolor ("Kawaratake")
(§24) The test specimens were of two types, treated and untreated specimens, respectively.
(§25) The treated specimens referred to the wood specimens coated by brushing, spraying or dipping with wood preservatives. The amount of applied preservatives was 110 ± 10 g/m².
(§26) The amount of applied preservatives for each test specimen was calculated by the following equation:
(§27) The amount of applied preservatives (g/m²)=(W₁-W₂)/A wherein W₁ : weight of the test specimen after absorption(g), W₂ : weight of the test specimen before absorption(g) and A: surface area of test specimen except both butt surfaces (m²)
(§28) 2-7-1 The test specimens prepared in the previous section were dried at 60 ± 2 °C with a recirculating dryer for 48 hours, and were allowed to stand in a desiccator for about 30 minutes, and then the weight (W₃) was measured to an accuracy of 0.01 g.
(§29) 2-7-2 Three of each treated and untreated specimens were assembled in the Teflon casing. After sterilizing, the two assemblies were put on their 40 × 5 mm face on the fungi layer in the separate jar. They were kept at 26 ± 2 °C under the relative humidity of over 70 % for eight weeks.
(§30) 2-7-3 After the eight weeks had elapsed, the test specimens were taken out, and mycelia and other attachments of them were removed neatly. After air-drying for 24 hours, the test specimens were dried at 60 ± 2 °C in a recirculating dryer for 48 hours, and were allowed to stand in a desiccator for about 30 minutes, and then the weight (W₄) was measured to an accuracy of 0.01 g.
(§31) The test results were presented by the ratio of average weight loss of test specimens due to antimicrobial operation. The standard deviation and coefficient of variation were also determined. The ratio of weight loss for each test specimen was calculated by the following equation, and its average was also determined: The ratio of weight loss(%) = (W₃ - W₄) / W₃ × 100 [formula] . Lower value of the ratio of weight loss corresponds to higher wood preserving activity. […]

[7] = system: Tyromyces palustris (Ber. et Curt.) Murr., FFPRI 0507; experiment: as above; conditions: cedar sapwood specimens, 110 ± 10 g/m² preservative applied (0.5% xylene solution per table note), eight weeks at 26 ± 2 °C; lower = higher preserving activity
Description: as §17, §18, §19, §20, §21, §22, §23, §24, §25, §26, §27, §28, §29, §30, §31

[8] = system: Aspergillus Niger (IFO 6341), Penicillium funiculosum (IFO 6345), Rhizopus javanicus (IFO 6354), Aureobasidium pullulans (IFO 6353), Gliocladium virens (IFO …); experiment: Fungicide activity for wood fungicide, sum of average ratings and damage value over the five fungi
Description: as §1, §2, §3, §4, §5, §6, §7, §8, §9, §10, §11, §12, §13, §14, §15, §16

Q: For `CCCCNC(=O)OCC#CI` [R, I-C≡CCH₂O-CO-NH(CH₂)₃CH₃, reference compound], which “Average rating value, A₃ : Rhizopus javanicus (IFO 6354)” value [1] is on record?
A: 2.0

Q: And the “Average rating value, A₅ : Gliocladium virens (IFO 6355)” value [2]?
A: 0.0

Q: What about the “Average rating value, A₁ : Aspergillus Niger (IFO 6341)” value [3] of the same compound?
A: 0.0

Q: And the “Average rating value, A₄ : Aureobasidium pullulans (IFO 6353)” value [4]?
A: 0.0

Q: And the “Average rating value, A₂ : Penicillium funiculosum (IFO 6345)” value [5]?
A: 0.0

Q: And the “Ratio of weight loss (%), C. versicolor” value [6]?
A: 6.4%

Q: And the “Ratio of weight loss (%), T. palustris” value [7]?
A: 1.3%

Q: And the damage value ([8]; D = S₁ / S₀ × 100, untreated 100.0, lower = higher fungicide activity)?
A: 13.3

Q: And the “Sum (of average rating values A₁ to A₅)” value ([8]; S = A₁ + A₂ + A₃ + A₄ + A₅, untreated 15.0)?
A: 2.0
